Assay results as given in PubChem BioAssay (NCI).
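Test compounds were applied to cells in 96-well plates for 48 hours at 5 doses. At the TGI there is no net growth.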

What was measured:
Experiment in all cases: NCI anticancer screen, dose series, 48 h
[1] = test system: ACHN renal
[2] = test system: M14 melanoma
[3] = test system: NCI-H460 lung
[4] = test system: SK-MEL-5 melanoma
[5] = test system: K-562 leukemia
[6] = test system: MDA-MB-231 breast
[7] = test system: A498 renal
[8] = test system: HCT-15 colon
[9] = test system: SN12C renal
[10] = test system: TK-10 renal
[11] = test system: SF-295 CNS
[12] = test system: DU-145 prostate
[13] = test system: UO-31 renal
[14] = test system: OVCAR-3 ovarian
[15] = test system: HCC-2998 colon
[16] = test system: NCI-H226 lung
[17] = test system: HOP-62 NSCLC
[18] = test system: OVCAR-4 ovarian
[19] = test system: T-47D breast
[20] = test system: SK-MEL-2 melanoma
[21] = test system: MOLT-4 leukemia
[22] = test system: LOX IMVI melanoma
[23] = test system: OVCAR-8 ovarian
[24] = test system: BT-549 breast
[25] = test system: NCI/ADR-RES ovarian
[26] = test system: SK-OV-3 ovarian
[27] = test system: CCRF-CEM leukemia
[28] = test system: HOP-92 NSCLC
[29] = test system: UACC-257 melanoma
[30] = test system: A549 NSCLC
[31] = test system: HT29 colon
[32] = test system: MALME-3M melanoma
[33] = test system: NCI-H522 lung
[34] = test system: CAKI-1 renal
[35] = test system: SF-268 CNS
[36] = test system: MDA-MB-435
[37] = test system: COLO 205 colon
[38] = test system: OVCAR-5 ovarian
[39] = test system: SW-620 colon
[40] = test system: IGROV1 ovarian
[41] = test system: SK-MEL-28 melanoma
[42] = test system: HL-60(TB) leukemia
[43] = test system: RXF 393 renal
[44] = test system: SNB-19 CNS
[45] = test system: 786-0 renal
[46] = test system: HCT-116 colon
[47] = test system: EKVX NSCLC
[48] = test system: SF-539 CNS
[49] = test system: U251 CNS
[50] = test system: HS 578T breast
[51] = test system: RPMI-8226 leukemia
[52] = test system: SNB-75 CNS
[53] = test system: SR leukemia
[54] = test system: NCI-H23 lung
[55] = test system: PC-3 prostate
[56] = test system: KM12 colon
[57] = test system: UACC-62 melanoma
[58] = test system: MDA-N
[59] = test system: MCF7 breast

Q: For `[N-]=[N+]=NCC1OC(n2cnc3c(N)ncnc32)C2OC12` (stereo not drawn), which TGI [1] is on record?
A: Its TGI is over 100 µM.

Q: What about the TGI [2] of the same compound?
A: The TGI was over 100 µM.

Q: What about the TGI [3] of the same compound?
A: The TGI was over 100 µM.

Q: What about the TGI [4] of the same compound?
A: Its TGI is over 100 µM.

Q: And the TGI [5]?
A: Its TGI is over 100 µM.

Q: And the TGI [6]?
A: Its TGI is over 100 µM.

Q: And the TGI [7]?
A: Its TGI is over 100 µM.

Q: What about the TGI [8] of the same compound?
A: The TGI was over 100 µM.

Q: What about the TGI [9] of the same compound?
A: The TGI was over 100 µM.

Q: What about the TGI [10] of the same compound?
A: Its TGI is over 100 µM.

Q: And the TGI [11]?
A: Its TGI is over 100 µM.

Q: And the TGI [12]?
A: Its TGI is over 100 µM.

Q: What about the TGI [13] of the same compound?
A: Its TGI is over 100 µM.

Q: And the TGI [14]?
A: The TGI was over 100 µM.

Q: What about the TGI [15] of the same compound?
A: The TGI was over 100 µM.

Q: And the TGI [16]?
A: Its TGI is over 100 µM.

Q: What about the TGI [17] of the same compound?
A: Its TGI is over 100 µM.

Q: What about the TGI [18] of the same compound?
A: Its TGI is over 100 µM.

Q: And the TGI [19]?
A: The TGI was over 100 µM.

Q: What about the TGI [20] of the same compound?
A: The TGI was over 100 µM.

Q: And the TGI [21]?
A: Its TGI is over 100 µM.

Q: What about the TGI [22] of the same compound?
A: The TGI was over 100 µM.

Q: What about the TGI [23] of the same compound?
A: The TGI was over 100 µM.

Q: And the TGI [24]?
A: The TGI was over 100 µM.

Q: And the TGI [25]?
A: The TGI was over 100 µM.

Q: And the TGI [26]?
A: The TGI was over 100 µM.

Q: And the TGI [27]?
A: The TGI was over 100 µM.

Q: What about the TGI [28] of the same compound?
A: Its TGI is over 100 µM.

Q: What about the TGI [29] of the same compound?
A: Its TGI is over 100 µM.

Q: What about the TGI [30] of the same compound?
A: The TGI was over 100 µM.

Q: What about the TGI [31] of the same compound?
A: The TGI was over 100 µM.

Q: What about the TGI [32] of the same compound?
A: Its TGI is over 100 µM.

Q: What about the TGI [33] of the same compound?
A: The TGI was over 100 µM.

Q: And the TGI [34]?
A: Its TGI is over 100 µM.

Q: What about the TGI [35] of the same compound?
A: The TGI was over 100 µM.

Q: And the TGI [36]?
A: The TGI was over 100 µM.

Q: And the TGI [37]?
A: Its TGI is over 100 µM.

Q: What about the TGI [38] of the same compound?
A: Its TGI is over 100 µM.

Q: What about the TGI [39] of the same compound?
A: The TGI was over 100 µM.

Q: What about the TGI [40] of the same compound?
A: The TGI was over 100 µM.

Q: What about the TGI [41] of the same compound?
A: The TGI was over 100 µM.

Q: And the TGI [42]?
A: Its TGI is over 100 µM.

Q: What about the TGI [43] of the same compound?
A: Its TGI is over 100 µM.

Q: And the TGI [44]?
A: The TGI was over 100 µM.

Q: And the TGI [45]?
A: Its TGI is over 100 µM.

Q: What about the TGI [46] of the same compound?
A: The TGI was over 100 µM.

Q: What about the TGI [47] of the same compound?
A: Its TGI is over 100 µM.

Q: And the TGI [48]?
A: The TGI was over 100 µM.

Q: What about the TGI [49] of the same compound?
A: The TGI was over 100 µM.

Q: What about the TGI [50] of the same compound?
A: Its TGI is over 100 µM.

Q: And the TGI [51]?
A: Its TGI is over 100 µM.

Q: What about the TGI [52] of the same compound?
A: The TGI was over 100 µM.

Q: What about the TGI [53] of the same compound?
A: Its TGI is over 100 µM.

Q: And the TGI [54]?
A: Its TGI is over 100 µM.

Q: And the TGI [55]?
A: The TGI was over 100 µM.

Q: What about the TGI [56] of the same compound?
A: The TGI was over 100 µM.

Q: What about the TGI [57] of the same compound?
A: The TGI was over 100 µM.

Q: What about the TGI [58] of the same compound?
A: Its TGI is over 100 µM.

Q: What about the TGI [59] of the same compound?
A: The TGI was over 100 µM.

Q: Which TGI [1] does the source give for `Cc1noc(C)c1-n1nc2ccc3nonc3c2n1` here?
A: Its TGI is over 100 µM.

Q: What about the TGI [2] of the same compound?
A: The TGI was over 100 µM.

Q: What about the TGI [3] of the same compound?
A: The TGI was over 100 µM.

Q: What about the TGI [4] of the same compound?
A: Its TGI is over 100 µM.

Q: What about the TGI [5] of the same compound?
A: Its TGI is over 100 µM.

Q: What about the TGI [6] of the same compound?
A: Its TGI is over 100 µM.

Q: And the TGI [7]?
A: The TGI was 66.8 µM.

Q: What about the TGI [8] of the same compound?
A: Its TGI is over 100 µM.

Q: And the TGI [9]?
A: The TGI was over 100 µM.

Q: And the TGI [10]?
A: Its TGI is over 82 µM.

Q: And the TGI [11]?
A: Its TGI is 98.6 µM.

Q: What about the TGI [12] of the same compound?
A: Its TGI is over 100 µM.

Q: And the TGI [13]?
A: Its TGI is over 100 µM.

Q: What about the TGI [14] of the same compound?
A: The TGI was over 100 µM.

Q: What about the TGI [15] of the same compound?
A: The TGI was over 100 µM.

Q: And the TGI [16]?
A: The TGI was over 100 µM.

Q: And the TGI [17]?
A: Its TGI is 59.7 µM.

Q: What about the TGI [18] of the same compound?
A: The TGI was over 100 µM.

Q: What about the TGI [19] of the same compound?
A: Its TGI is over 100 µM.

Q: What about the TGI [20] of the same compound?
A: Its TGI is over 100 µM.

Q: What about the TGI [21] of the same compound?
A: Its TGI is over 100 µM.

Q: And the TGI [22]?
A: Its TGI is over 100 µM.

Q: What about the TGI [23] of the same compound?
A: The TGI was over 100 µM.

Q: What about the TGI [24] of the same compound?
A: Its TGI is over 100 µM.

Q: And the TGI [25]?
A: The TGI was over 100 µM.

Q: And the TGI [26]?
A: The TGI was over 73.4 µM.

Q: What about the TGI [27] of the same compound?
A: Its TGI is over 100 µM.

Q: What about the TGI [28] of the same compound?
A: The TGI was over 86.4 µM.

Q: And the TGI [29]?
A: The TGI was over 100 µM.

Q: And the TGI [30]?
A: Its TGI is over 100 µM.

Q: What about the TGI [31] of the same compound?
A: The TGI was over 100 µM.

Q: And the TGI [32]?
A: The TGI was over 100 µM.

Q: What about the TGI [33] of the same compound?
A: Its TGI is over 100 µM.

Q: And the TGI [34]?
A: The TGI was over 100 µM.

Q: And the TGI [35]?
A: Its TGI is over 100 µM.

Q: And the TGI [36]?
A: The TGI was over 100 µM.

Q: What about the TGI [37] of the same compound?
A: Its TGI is over 100 µM.

Q: And the TGI [38]?
A: The TGI was over 100 µM.

Q: What about the TGI [39] of the same compound?
A: The TGI was over 100 µM.

Q: And the TGI [40]?
A: The TGI was over 100 µM.

Q: What about the TGI [41] of the same compound?
A: Its TGI is over 100 µM.

Q: And the TGI [42]?
A: The TGI was over 100 µM.

Q: What about the TGI [43] of the same compound?
A: Its TGI is 51.5 µM.

Q: What about the TGI [44] of the same compound?
A: Its TGI is over 76.4 µM.

Q: And the TGI [45]?
A: The TGI was over 93 µM.

Q: What about the TGI [46] of the same compound?
A: Its TGI is over 100 µM.

Q: And the TGI [47]?
A: Its TGI is over 92.4 µM.

Q: And the TGI [48]?
A: The TGI was over 71.4 µM.

Q: What about the TGI [49] of the same compound?
A: The TGI was over 75.4 µM.

Q: And the TGI [50]?
A: Its TGI is over 88.1 µM.

Q: What about the TGI [51] of the same compound?
A: The TGI was over 100 µM.

Q: What about the TGI [52] of the same compound?
A: The TGI was over 82.4 µM.

Q: And the TGI [53]?
A: Its TGI is over 100 µM.

Q: And the TGI [54]?
A: Its TGI is over 100 µM.

Q: What about the TGI [55] of the same compound?
A: The TGI was over 100 µM.

Q: And the TGI [56]?
A: Its TGI is over 100 µM.

Q: And the TGI [57]?
A: The TGI was over 100 µM.

Q: And the TGI [58]?
A: The TGI was over 100 µM.

Q: What about the TGI [59] of the same compound?
A: The TGI was over 100 µM.
